Where “and” joins values, the source holds several entries; their conditions need not be identical. Equal entries are not always repeated. Where two headings read alike, the source gives them in different places. Blank lines part the entries; values can stand above or below the compound they belong to.
Columns and labels:
clinical = conditions: human, in vivo; for Vd/F: Vz/F
Protocol: (§1) For all subjects in the rifampin treatment arm, the last quantifiable enzalutamide concentration was measured prior to the end of the rifampin dosing period (up to 13 days after enzalutamide dosing).
(§2) It should be noted that AUCs could only be accurately determined for 4 subjects in the enzalutamide treatment arm (treatment arm 1) and 6 subjects in the enzalutamide+rifampin treatment arm (treatment arm 2).

CYP3A4 = conditions: in vivo
Protocol: Data handling. […] In addition, for many subjects, urine samples taken post enzalutamide dose were not taken within 180 minutes of the ‘virtual’ enzalutamide dosing time (i.e., day 1 enzalutamide dosing time [enzalutamide treatment arm{treatment arm 1}] and day 8 enzalutamide dosing time [enzalutamide+rifampin treatment arm {treatment arm 2}]) and/or pre-dose of rifampin. The 6β-hydroxycortisol and cortisol concentrations of these urine samples and obtained 6β-hydroxycortisol/cortisol ratios were excluded from summary statistics.

[1] = human, in vivo
Protocol: as §1, §2

[2] = Drug-drug interaction trial: plasma pharmacokinetics of enzalutamide, M1, M2 and sum of enzalutamide plus M2 after single 160 mg enzalutamide alone or with multiple doses of rifampin; conditions: for MPR (MWC): metabolite versus parent ratio (molecular weight corrected), Mean: based on AUCinf;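 on all read-outs here: human plasma pharmacokinetics in a two-arm drug interaction trial comparing enzalutamide given alone against enzalutamide given with rifampin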
Protocol: as §1, §2

[3] = Rifampin plasma pharmacokinetics on day 8 after multiple doses of 600 mg once daily; assay type: in vivo, human (healthy volunteers); conditions: multiple doses of 600 mg rifampin once daily; for AUC / concentration at 2 h / Cmax / Tmax: human, plasma, oral, 600 mg
Protocol: Data handling. The actual sampling time of enzalutamide and its metabolites for 6 subjects (7 samples in total), and the actual sampling time of the 2-hour rifampin sample of subject 10002 on Day 21 deviated more than 10% of the scheduled time point.
In FIG. 7, individual and mean rifampin C2H plasma concentrations that were obtained during the entire dosing period of 21 days are presented.
Median tmax was reached 2 hours post-dose.

[4] = plasma, Enzalutamide (Reference), single 160 mg dose alone
[5] = plasma, single dose 160 mg enzalutamide alone
[6] = plasma, single dose 160 mg enzalutamide in the presence of multiple doses of 600 mg rifampin once daily (Test)

AUC(0-inf) (clinical): 86.9 µg·h/mL | AUC(0-t) (clinical): 86.8 µg·h/mL | Cmax (clinical): 4.52 µg/mL | AUC(0-t) (clinical; 160 mg, AUC0-336h, Mean): 239 µg·h/mL | AUC(0-t) (clinical; 160 mg, AUC0-336h, Median): 233 µg·h/mL | AUC(0-t) (clinical; 160 mg, AUC0-t, Mean): 258 µg·h/mL | AUC(0-t) (clinical; 160 mg, AUC0-t, Median): 254 µg·h/mL | AUC(0-inf) (clinical; 160 mg, AUCinf, Geometric LS Mean): 257 µg·h/mL | AUC(0-inf) (clinical; 160 mg, AUCinf, Mean): 262 µg·h/mL | AUC(0-inf) (clinical; 160 mg, AUCinf, Median): 259 µg·h/mL | Cmax (clinical; 160 mg, Cmax, Geometric LS Mean): 4.86 µg/mL | Cmax (clinical; 160 mg, Cmax, Mean): 4.93 µg/mL | Cmax (clinical; 160 mg, Cmax, Median): 5.14 µg/mL | Vd/F (clinical; 160 mg, Mean): 79.8 L | Vd/F (clinical; 160 mg, Median): 78.1 L | half-life (clinical; 160 mg, t1/2, Mean): 90.1 h | half-life (clinical; 160 mg, t1/2, Median): 85.7 h | Tmax (clinical; 160 mg, Mean): 1.08 h | Tmax (clinical; 160 mg, Median): 0.91 h | Inductive effect on CYP3A4 (pharmacodynamic assessment) (CYP3A4): minimal inductive effect | AUC0-336hr lower in the presence of rifampin [1]: 63% | AUCinf lower in the presence of rifampin [1]: 66% | % AUC (percentage extrapolated), range of individual values ([1]; 160 mg): 0.658-4.56% | CL/F, Mean ([1]; 160 mg): 0.6330 L/h | CL/F, Median ([1]; 160 mg): 0.6184 L/h
SMILES: CNC(=O)c1ccc(N2C(=S)N(c3ccc(C#N)c(C(F)(F)F)c3)C(=O)C2(C)C)cc1F [Enzalutamide, 4-{3-[4-cyano-3-(trifluoromethyl)phenyl]-5,5-dimethyl-4-oxo-2-sulfanylideneimidazolidin-1-yl}-2-fluoro-N-methylbenzamide]

SMILES: CC1(C)C(=O)N(c2ccc(C#N)c(C(F)(F)F)c2)C(=S)N1c1ccc(C(=O)O)c(F)c1 [M1]
AUC0-336hr lower in the presence of rifampin [1]: 15% | AUCinf lower in the presence of rifampin [1]: 32% | AUC0-336h, Mean ([1]; 160 mg): 32.49 µg·h/mL | AUC0-336h, Median ([1]; 160 mg): 31.38 µg·h/mL | AUC0-t, Mean ([1]; 160 mg): 47.87 µg·h/mL | AUC0-t, Median ([1]; 160 mg): 46.66 µg·h/mL | AUCinf, Geometric LS Mean ([1]; 160 mg): 59.62 µg·h/mL | AUCinf, Mean ([1]; 160 mg): 62.14 µg·h/mL | AUCinf, Median ([1]; 160 mg): 57.39 µg·h/mL | Cmax, Geometric LS Mean ([1]; 160 mg): 0.1346 µg/mL | Cmax, Mean ([1]; 160 mg): 0.1414 µg/mL | Cmax, Median ([1]; 160 mg): 0.1350 µg/mL | t1/2, Mean ([1]; 160 mg): 223.9 h | t1/2, Median ([1]; 160 mg): 236.6 h

SMILES: CC1(C)C(=O)N(c2ccc(C#N)c(C(F)(F)F)c2)C(=S)N1c1ccc(C(N)=O)c(F)c1 [M2, N-desmethyl enzalutamide]
AUC0-336hr higher in the presence of rifampin ([2]; compared to enzalutamide alone): 15% | AUCinf lower in the presence of rifampin ([2]; compared to enzalutamide alone): 15% | Cmax higher in the presence of rifampin ([2]; compared to enzalutamide alone): 34% | AUCinf, Geometric LS Mean [2, 4]: 349.3 µg·h/mL | Cmax, Geometric LS Mean [2, 4]: 0.7370 µg/mL | AUC0-336h, Mean [2, 5]: 197.6 µg·h/mL | AUC0-336h, Median [2, 5]: 184.1 µg·h/mL | AUC0-t, Mean [2, 5]: 344.3 µg·h/mL | AUC0-t, Median [2, 5]: 338.3 µg·h/mL | AUCinf, Mean [2, 5]: 354.0 µg·h/mL | AUCinf, Median [2, 5]: 351.0 µg·h/mL | Cmax, Mean [2, 5]: 0.7546 µg/mL | Cmax, Median [2, 5]: 0.7145 µg/mL | MPR (MWC): metabolite versus parent ratio (molecular weight corrected), Median [2, 5]: 1.373 | t1/2, Mean [2, 5]: 190.4 h | t1/2, Median [2, 5]: 182.1 h | tmax, Mean [2, 5]: 161.3 h | MPR (MWC): metabolite versus parent ratio (molecular weight corrected), Mean [2, 5]: 1.385 and 1.431 | AUC0-336h, Mean [2, 6]: 224.0 µg·h/mL | AUC0-336h, Median [2, 6]: 221.9 µg·h/mL | AUC0-t, Mean [2, 6]: 292.1 µg·h/mL | AUC0-t, Median [2, 6]: 293.5 µg·h/mL | AUCinf, Mean [2, 6]: 297.9 µg·h/mL | AUCinf, Median [2, 6]: 299.4 µg·h/mL | Cmax, Mean [2, 6]: 0.9949 µg/mL | Cmax, Median [2, 6]: 1.010 µg/mL | MPR (MWC): metabolite versus parent ratio (molecular weight corrected), Median [2, 6]: 3.372 | t1/2, Mean [2, 6]: 154.7 h | t1/2, Median [2, 6]: 152.5 h | tmax, Mean [2, 6]: 66.75 h | tmax, Median [2, 6]: 71.86 h | MPR (MWC): metabolite versus parent ratio (molecular weight corrected), Mean [2, 6]: 3.443 and 3.558

AUC ([3]; read-out: AUCtau, Mean): 35.6 µg·h/mL | AUC ([3]; read-out: AUCtau, Median): 35.2 µg·h/mL | concentration at 2 h ([3]; read-out: C2h, Mean): 6.76 µg/mL | concentration at 2 h ([3]; read-out: C2h, Median): 6.62 µg/mL | Cmax ([3]; read-out: Cmax, Mean): 7.16 µg/mL | Cmax ([3]; read-out: Cmax, Median): 7.04 µg/mL | Tmax ([3]; read-out: tmax, Mean): 1.72 h | Tmax ([3]; read-out: tmax, Median): 2 h | Cmin, Mean [3]: 0 µg/mL
SMILES: CO[C@H]1/C=C/O[C@@]2(C)Oc3c(C)c(O)c4c(O)c(c(/C=N/N5CCN(C)CC5)c(O)c4c3C2=O)NC(=O)/C(C)=C\C=C\[C@H](C)[C@H](O)[C@@H](C)[C@@H](O)[C@@H](C)[C@H](OC(C)=O)[C@@H]1C [Rifampin, rifampin]

— patent publication US12161628B2, “Combination therapy” (Medivation Prostate Therapeutics LLC, priority 2015, dated 2024)
